“Also recorded” adds a separate entry of the source.

Experimental findings from patent US8491897B2, “Treatment of neuropathic pain using anti-thrombospondin antibodies” (The Board of Trustees of the Leland Stanford Junior …, priority 2007, dated 2013) are described below.

One series deals with T1, TSP4 (Rattus norvegicus, UniProt P49744).
T1 construct: elevated TSP4 protein may play a critical role in peripheral nerve injury-induced allodynia at the spinal level; from tissue; host or cells: spinal cord (L5/6) of live male Sprague Dawley rats, intrathecal injection
T1 sequence (P49744 43-980): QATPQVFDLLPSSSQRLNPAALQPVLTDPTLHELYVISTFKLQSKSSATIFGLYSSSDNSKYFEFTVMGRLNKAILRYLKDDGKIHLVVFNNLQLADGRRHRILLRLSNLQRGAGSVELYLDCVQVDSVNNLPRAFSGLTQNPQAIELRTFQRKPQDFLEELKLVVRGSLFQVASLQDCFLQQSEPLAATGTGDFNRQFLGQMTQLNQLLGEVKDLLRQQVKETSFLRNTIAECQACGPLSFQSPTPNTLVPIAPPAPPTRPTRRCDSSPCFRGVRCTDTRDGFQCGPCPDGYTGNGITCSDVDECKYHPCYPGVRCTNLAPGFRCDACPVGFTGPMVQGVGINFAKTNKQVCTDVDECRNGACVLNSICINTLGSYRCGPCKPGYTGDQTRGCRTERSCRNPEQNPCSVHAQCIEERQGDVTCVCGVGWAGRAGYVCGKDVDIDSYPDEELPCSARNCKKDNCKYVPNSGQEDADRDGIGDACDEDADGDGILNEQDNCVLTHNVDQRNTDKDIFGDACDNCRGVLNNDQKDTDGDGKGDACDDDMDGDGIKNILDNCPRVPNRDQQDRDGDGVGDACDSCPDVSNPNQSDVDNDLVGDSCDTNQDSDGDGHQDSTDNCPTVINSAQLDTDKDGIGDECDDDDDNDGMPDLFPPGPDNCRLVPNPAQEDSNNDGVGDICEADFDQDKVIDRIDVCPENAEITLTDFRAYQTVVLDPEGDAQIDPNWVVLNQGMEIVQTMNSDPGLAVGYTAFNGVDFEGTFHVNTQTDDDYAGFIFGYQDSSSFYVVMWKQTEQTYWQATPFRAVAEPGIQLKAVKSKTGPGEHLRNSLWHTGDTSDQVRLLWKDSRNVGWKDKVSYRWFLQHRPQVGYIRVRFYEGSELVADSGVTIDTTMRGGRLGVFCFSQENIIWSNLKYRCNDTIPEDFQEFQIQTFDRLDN
The series is described as follows: Reversal of established tactile allodynia in L5/6 spinal nerve ligated rats (von Frey PWT). Format: in vivo. To be noted: 50 ug/day intrathecal for four days; for reversal of established allodynia in the injury (ipsilateral) side: 5 weeks post injury. As for the experimental part: To determine if TSP4 plays a role in mediating neuropathic pain processing at the spinal cord level, the effect of intrathecal TSP4 antisera in reversing established allodynia in spinal nerve ligated rats was examined. Intrathecal bolus injection of active TSP4 antibody (chicken polyclonal, from Dr. Frank Zaucke at University of Cologne, Cologne, Germany) was administered into left L5/6 spinal nerve ligated rats 2-weeks post injury, when the injured rats had fully developed allodynia. […] Neither the antisense nor mismatch oligodeoxynucleotides altered the behavioral thresholds at the non-injury side. […] Male Harlan Sprague Dawley rats (100-150 g, Harlan Industries Indianapolis, Ind.) were housed in separate cages, exposed to a 12/12 h day/night cycle and allowed free access to food and water. Peripheral nerve injury was induced in isoflurane-anesthetized animals with tight ligation of the left L5/6 spinal nerves between DRG and the beginning of the spinal nerve (Kim and Chung, Pain 50 50:355-363, 1992). To access tactile allodynia, paw withdrawal threshold (PWT) was determined using the up-down method of Dixon (Dixon, Ann. Rev. Pharma. & Toxico. 20:441-462, 1980) with von Frey filaments (Stoelting, Wood Dale, Ill., USA) as described previously (Chaplan et al., J. Neuros. Methods 53:55-63, 1994). Briefly, animals were allowed to acclimate for 30 min in a clear plastic cubicle with a wire-mesh base. A 2 g calibrated filament was first applied to the left hindpaw plantar surface with a pressure causing the filament to bend. If no paw lifting was detected after 5 s the next filament with increasing weight was used. If a paw lifting was observed, the next weaker filament was used. […] Neurosci. 21:1868-75, 2001). […] Rn014934317, Applied Biosystems), and is specific to the TSP 4 mRNA. Mismatch oligodeoxynucleotides, which contain the same number of nucleotides but in a random order (not complementary to any particular region of TSP4 mRNA), were used as controls. […] Genbank accession #: X89963) Oligodeoxynucleotides: These antisense and mismatch sequences were not complementary to any sequences of other rat genes as indicated by BLAST search results in rat genome database. It had been shown that oligodeoxynucleotides with phosphorothioate modification have increased potential for crossing lipid bilayers, and reduce nuclease cleavage (Crooke, et al., Ann. Rev. Pharmacology. & Toxicology, 1996).

Series [1] has as its system RGCs. The experiment in a line: Inhibition of TSP-, astrocyte/ACM- or Hevin-induced synapse formation in RGC cultures. The class given is cell-based, rat. As for the experimental part:
(§1) RGCs were purified by sequential immunopanning to greater than 99.5% purity from P5 Sprague-Dawley rats (Simonsen Labs, Gilroy, Calif.), as previously described (Barres et. al. (1988) Neuron 9, 791). Approximately 30,000 RGCs were cultured per well in 24-well plates (Falcon) on glass (Assistant) or Aclar 22C (Allied Signal) coverslips coated with poly-D-lysine (10 μg/ml) followed by laminin (2 μg/ml). RGCs were cultured in 600 μl of serum-free medium, modified from Bottenstein and Sato (1979), containing Neurobasal (Gibco), bovine serum albumin, selenium, putrescine, triiodo-thyronine, transferrin, progesterone, pyruvate (1 mM), glutamine (2 mM), CNTF (10 ng/ml), BDNF (50 ng/ml), insulin (5 μg/ml), and forskolin (10 μM). Recombinant human BDNF and CNTF were generously provided by Regeneron Pharmaceuticals.
(§2) Purified human platelet TSP1 was from either Sigma or Haematologic Technologies with similar results. Recombinant TSP2 was purified from serum-free medium conditioned by baculovirus-infected insect cells expressing mouse TSP2. Since purified TSP1 is readily available, we used this as the source of TSP in our experiments unless otherwise stated TSPs were used at a concentration of 5 μg/ml unless otherwise specified. RCGs were cultured for 4 days to allow robust process outgrowth and then cultured with TSPs for an additional 6 days. All other reagents were obtained from Sigma.
For preparation of ACM, confluent cultures of astrocytes in 10 cm dishes were washed 3× in PBS and fed with 10 mls RGC medium (without CNTF, BDNF or forskolin). ACM was harvested after 4-6 days of conditioning, filtered through a 0.2 μm syringe filter and concentrated 10× through a 5 KD molecular weight cut-off centrifuge concentrator (Millipore), unless otherwise indicated. ACM was used at a final concentration of 5× unless otherwise indicated. RCGs were cultured for 4 days to allow robust process outgrowth and then cultured with ACM or an astrocyte-feeding layer for an additional 6 days.
For synapse quantification, cultures were fixed for 7 min in 4% paraformaldehyde (PFA), washed 3× in phosphate buffered saline (PBS) and blocked in 100 μL of blocking buffer (50% Antibody Buffer (0.5% bovine serum albumin, 0.5% Triton X-100, 30 mM NaPO4, 750 mM NaCl, 5% normal goat serum, and 0.4% NaN3, pH 7.4), 50% goat serum (NGS), 0.1% Triton-X) for 30 min. After blocking, cover slips were washed 3× in PBS and 100 μL of primary antibody solution was added to each cover slip, consisting of rabbit anti-synaptotagmin (cytosolic domain, Synaptic Systems) and mouse anti-PSD-95 (6G6-1C9 clone, Affinity Bio Reagents) diluted 1:500 in antibody buffer. Coverslips were incubated overnight at 4° C., washed 3× in PBS, and incubated with 100 μL of secondary antibody solution containing Alexa-594 conjugated goat anti-rabbit and Alexa-488 conjugated goat anti-mouse (Molecular Probes) diluted 1:1000 in antibody buffer. Following incubation for 2 h at room temperature, coverslips were washed five times in PBS and mounted in Vectashield mounting medium with DAPI (Vector Laboratories Inc) on glass slides (VWR Scientific). For presynaptic activity assay, rabbit synaptotagmin antiserum was generated by immunization with a peptide corresponding to the N-terminal luminal portion of synaptotagmin. This serum was added at 1:500 to live cultures and incubated for 6 hours. Cells were then washed 3× in DPSB, fixed and stained as above, except for the omission of synaptotagmin antibody from the primary antibody solution.
(§3) Mounted coverslips were imaged using Nikon Diaphot and Eclipse epifluorescence microscopes (Nikon). Healthy cells that were at least 2 cell diameters from their nearest neighbor were identified and selected at random by eye using DAPI fluorescence. 8-bit digital images of the fluorescence emission at both 594 nm and 488 nm were recorded for each selected cell using a cooled monochrome CCD camera and SPOT image capture software (Diagnostic Instruments, Inc). […]

For series [2], the system named is RGCs. The experiment in a line: RGC synapse assay: synaptogenic activity (co-localized synaptotagmin/PSD-95 puncta). The class given is cell-based, rat. To be noted: for number of co-localized synaptic puncta/cell (synapse number): purified TSPs, 8 nM each, vs RGCs alone (Control). As for the experimental part: as §1, §2
For preparation of ACM, confluent cultures of astrocytes in 10 cm dishes were washed 3× in PBS and fed with 10 mls RGC medium (without CNTF, BDNF or forskolin). ACM was harvested after 4-6 days of conditioning, filtered through a 0.2 μm syringe filter and concentrated 10× through a 5 KD molecular weight cut-off centrifuge concentrator (Millipore), unless otherwise indicated. ACM was used at a final concentration of 5× unless otherwise indicated. […]
For synapse quantification, cultures were fixed for 7 min in 4% paraformaldehyde (PFA), washed 3× in phosphate buffered saline (PBS) and blocked in 100 μL of blocking buffer (50% Antibody Buffer (0.5% bovine serum albumin, 0.5% Triton X-100, 30 mM NaPO4, 750 mM NaCl, 5% normal goat serum, and 0.4% NaN3, pH 7.4), 50% goat serum (NGS), 0.1% Triton-X) for 30 min. […]
as §3

For another series, the system named is naive rats. The experiment in a line: TSP4-induced behavioral hypersensitivity in naive rats (paw withdrawal threshold, von Frey). Format: in vivo, rat.

As for “5′ CCATCATTGTTGCTATCTTCC 3′ (DNA, backbone and methylation of C not given here; further chemistry not fully specified) [Antisense #2]”, in the series with TSP4, the “duration of antisense effects after the last injection” value is reported as 3 days, the “onset time of antisense effects” value worked out at 3 days, the “time of peak antisense effect” value is listed as “one day after the 4-day treatment” and the “reversal of established allodynia in the injury (ipsilateral) side” value (shortened to “reversal of established allodynia”) is “caused a complete reversal of established allodynia”. Also, in the series with TSP4 (listed as TSP4 antisense oligonucleotide #2), the “reversal of established allodynia” value was “caused a complete reversal of established allodynia in the injury side”.
For “5′ GGCGTAATCATGGTCATACG 3′ (DNA, backbone and methylation of C not given here; further chemistry not fully specified) [Antisense #1]”, the “reversal of established allodynia” value with TSP4 is “had some effects in allodynia reversal”.
For the molecule `NCCCC(=O)O` [GABA, γ-aminobutyric acid], the “effect on SD2/TSP-induced synapse formation” value in the series with RGCs [1] (1 mM (high concentrations)) is on record as “blocked TSP induced synapse formation; also recorded: inhibitory”. For the same molecule, the “effect on synapse numbers induced by SD2” value in the series on RGCs [1] (10 and 100 μM) is “did not decrease the synapse numbers”.
Turning to “TSP1: purified human platelet TSP1, trimeric thrombospondin”, the “number of co-localized synaptic puncta/cell (synapse number)” value with RGCs [2] is “significantly increased the number of co-localized synaptic puncta/cell; also recorded: increased the number of synapses formed by RGCs significantly”.
As for “TSP3: mouse TSP3 overexpressed in Cos7 cells; conditioned media used as source”, the “number of co-localized synaptic puncta/cell” value in the series with RGCs [2] (culture supernatant of Cos7 cells overexpressing TSP3, vs supernatant of empty-vector Cos7 cells) was “significantly increased the number of co-localized synaptic puncta/cell; also recorded: increased the number of synaptic puncta to the same extent as astrocytes”.
As for “TSP4: recombinant purified pentameric thrombospondin 4”, in the series with RGCs [2], the “number of co-localized synaptic puncta/cell (synapse number)” value is “significantly increased the number of co-localized synaptic puncta/cell; also recorded: increased synaptic puncta numbers to the same extent as either astrocytes or TSP1”. Also, in the series with naive rats (intrathecal bolus), the “duration of behavioral hypersensitivity” value is recorded as “over a week”, the “reversal time post the peak effect time” value is listed as “about five days” and the “time of peak effect post injection” value was 2 to 4 days. Moreover, the “hindpaw withdrawal thresholds to von Frey filament stimulation” value in the series on naive rats (intrathecal bolus injection of active protein into L5/6 spinal cord segments) was “caused a gradual reduction in their hindpaw withdrawal thresholds; also recorded: induced behavioral hypersensitivity in a dose-dependent and reversible manner”.

B1: Hevin: another astrocyte secreted synaptogenic protein (protein, UniProt Q14515 17-664, looked up)
SPARC-like protein 1: IPTNARLLSDHSKPTAETVAPDNTAIPSLRAEAEENEKETAVSTEDDSHHKAEKSSVLKSKEESHEQSAEQGKSSSQELGLKDQEDSDGHLSVNLEYAPTEGTLDIKEDMSEPQEKKLSENTDFLAPGVSSFTDSNQQESITKREENQEQPRNYSHHQLNRSSKHSQGLRDQGNQEQDPNISNGEEEEEKEPGEVGTHNDNQERKTELPREHANSKQEEDNTQSDDILEESDQPTQVSKMQEDEFDQGNQEQEDNSNAEMEEENASNVNKHIQETEWQSQEGKTGLEAISNHKETEEKTVSEALLMEPTDDGNTTPRNHGVDDDGDDDGDDGGTDGPRHSASDDYFIPSQAFLEAERAQSIAYHLKIEEQREKVHENENIGTTEPGEHQEAKKAENSSNEEETSSEGNMRVHAVDSCMSFQCKRGHICKADQQGKPHCVCQDPVTCPPTKPLDQVCGTDNQTYASSCHLFATKCRLEGTKKGHQLQLDYFGACKSIPTCTDFEVIQFPLRMRDWLKNILMQLYEANSEHAGYLNEKQRNKVKKIYLDEKRLLAGDHPIDLLLRDFKKNYHMYVYPVHWQFSELDQHPMDRVLTHSELAPLRASLVPMEHCITRFFEECDPNKDKHITLKEWGHCFGIKEEDIDENLLF
As to B1, the “number of synapses formed” value in the series on RGCs [2] (3 DIV RGCs treated 9 days, TSP2 EGF-like domains 20 nM, Hevin 30 nM, vs RGCs alone) is reported as “increased the number of synapses formed significantly”.
